Values of other authors, collected in patent US20260317295A1, “NAV1.8 INHIBITORS, PREPARATION METHOD THEREFOR AND USE THEREOF” (SHANGHAI INSTITUTE OF MATERIA MEDICA, CHINESE ACADEMY OF …, priority 2023, published 2026).

Columns and labels:
Nav1.8 [1] = details: rodents
Nav1.8 [2] = details: rat, STZ-induced diabetic neuropathy, intraperitoneal or intraplantar
Nav1.8 [3] = details: L7-1.8TG transgenic mice

| SMILES | pain responses (Nav1.8 [1]) | pain behavioral responses (Nav1.8 [2]) | MS behaviors (Nav1.8 [3]) |
| --- | --- | --- | --- |
| COc1cc(NC(=O)c2ccc(-c3ccc(Cl)cc3)o2)cc(OC)c1 [Compound A-803467] | effectively alleviate pain responses | dose-dependently alleviate the animals' pain behavioral responses |  |
| CNC(=O)c1ccc(-c2cc(Cl)cc(Cl)c2Cl)c(N)n1 [PF-01247324] |  |  | alleviate the MS behaviors |
